# Measured values as given in patent US12435112B2, “Adenovirus comprising a modified adenovirus hexon protein” (UNIVERSITÄT ULM, priority 2019, dated 2025).
# System: MSCs
# Assay: Transduction of MSCs with or without enhancing molecules
# Assay type: cell-based, human
# Conditions: enhancer pre-incubated with adenovirus
# Experimental: Transduction of MSCs by HAdV5 or HAdV5-Mut3, with or without Enhancing Molecules
# MSCs were seeded in 1 mL PL-containing BioWhittaker® Alpha minimum essential medium (Lonza) in 24-well plates. The next day, the indicated viral vector particles were pre-incubated with or without enhancing molecules for 30 minutes at 37° C. in a total volume of 300 μL in PL-free medium. As enhancing molecules, Factor X (250-2000 ng/mL), Spermidine (1-625 ng/μL), Spermine (1-1000 ng/μL), Polybrene (0.08-81 μg/μL), Poly-L-Lysine (1-25% v/v) and Lactoferrin (1-1000 μg/mL) were used. Subsequently, MSCs were washed and 500 μL PL-free medium was provided. Cells were transduced by adding 300 μL of the pre-incubated viral particles (resulting in the indicated pMOI) and incubated for 2 hours at 37° C. Afterwards, cells were washed, and 1 mL of PL-containing medium was added. 72 hours after transduction, MSCs were detached and eGFP expression was analyzed by flow cytometry.
# Amount of Enhancers Used for Pre-Incubation of HAdV5:
# Transduction of MSCs by HAdV5, HAdV5-Mut3, HAdV5-ΔCAR-Mut3, HAdV5-ΔHVR1 or HAdV5-Mut2
# Transduction of MSCs with a pMOI of 1000 was performed as described in section “Transduction of MSCs by HAdV5 or HAdV5-Mut3, with or without enhancing molecules”, except that MSCs were detached and eGFP expression was analyzed by flow cytometry 24 hours after transduction. No enhancing molecules were used.
row,SMILES,enhanced transduction of MSCs with adenoviruses by transduction enhancer
1,NCCCNCCCCNCCCN [Spermine],most pronounced
2,NCCCCNCCCN [Spermidine],most pronounced
